From the PolyMetriX glass transition set
± gives the standard deviation of the reports.

glass transition temperature | SMILES
280.00 °C | *c1ccc(Oc2ccc(S(=O)(=O)c3ccc(Oc4ccc(-c5c6c(c(*)c7ccccc57)C(=O)N(c5ccc(Cl)cc5)C6=O)cc4)cc3)cc2)cc1 (repeat unit)
178.00 °C | *OC1C(COC(C)=O)OC(*)C(OC(C)=O)C1OC(C)=O (repeat unit)
87.00 °C | */C=C(\C#N)C(=O)OCCCCCCOC(=O)/C(C#N)=C/c1ccc2c(c1)c1cc(*)ccc1n2CCCCCCCCCCCOc1ccc(/C=C/c2ccc([N+](=O)[O-])cc2)cc1 (repeat unit)
152.50 °C | *CC(O)COc1c(C)cc(S(=O)(=O)c2cc(C)c(O*)c(C)c2)cc1C (repeat unit)
320.00 °C | *C(=O)c1ccc2nc(-c3ccccc3)c(-c3ccc(-c4nc5ccc(*)cc5nc4-c4ccccc4)cc3)nc2c1 (repeat unit)
182.00 °C | *Oc1ccc(-c2ccc(-c3ccc(Oc4ccc(C(C)(C)c5ccc(*)cc5)cc4)cc3)cc2)cc1 (repeat unit)
351.00 °C | *c1ccc(-c2ccc(-c3nc4ccc(Oc5ccc6nc(*)c(-c7ccccc7)c(-c7ccccc7)c6c5)cc4c(-c4ccccc4)c3-c3ccccc3)cc2)cc1 (repeat unit)
200.00 °C | *Oc1ccc(NC(=O)Nc2ccccc2CCc2ccc(NC(=O)Nc3ccc(*)cc3)cc2)cc1 (repeat unit)
404.00 °C | *c1ccc(-c2ccc(-c3nc4ccc(-c5ccc6nc(*)c(-c7ccccc7)nc6c5)cc4nc3-c3ccccc3)cc2)cc1 (repeat unit)
147.00 °C | *Oc1ccc(-c2ccc(Oc3ccc(Oc4ccc(Oc5ccc(*)cc5)cc4)cc3)c3ccccc23)c2ccccc12 (repeat unit)
171.00 °C | *Oc1ccccc1Oc1ccc(S(=O)(=O)c2ccc(*)cc2)cc1 (repeat unit)
295.00 °C | *c1ccc(Oc2ccc(-c3nc4cc(Oc5ccc(NC(=O)c6cc(C(=O)Nc7ccc(Oc8ccc9nc(-c%10ccccc%10)c(*)nc9c8)cc7)cc(N7C(=O)c8c(Cl)c(Cl)c(Cl)c(Cl)c8C7=O)c6)cc5)ccc4nc3-c3ccccc3)cc2)cc1 (repeat unit)
72.00 °C | *c1ccc(C(=O)OCCCCCCCCCOC(=O)c2ccc(-c3nnc(*)s3)cc2)cc1 (repeat unit)
430.00 °C | *c1cccc(-n2c(=O)c3cc4c(=O)n(*)c(=O)c4cc3c2=O)c1 (repeat unit)
41.00 °C | *CCCCCOC(=O)CCCCCCCCCCN1C(=O)c2ccc(-c3ccc(-c4ccc5c(c4)C(=O)N(CCCCCCCCCCC(=O)OCCCCCN4C(=O)c6ccc(-c7ccc8c(c7)C(=O)N(*)C8=O)cc6C4=O)C5=O)cc3)cc2C1=O (repeat unit)
317.2 ± 3.2 °C | *C(=O)c1ccc2c(c1)C(=O)N(c1ccc(C)c(N3C(=O)c4ccc(*)cc4C3=O)c1)C2=O (repeat unit)
68.00 °C | *Oc1ccc(OC(=O)c2cc(OCCCCOCC3CCCN3c3ccc([N+](=O)[O-])cc3)c(C(*)=O)cc2OCCCCOCC2CCCN2c2ccc([N+](=O)[O-])cc2)cc1 (repeat unit)
-27.00 °C | *O[Si](C)(CCC(F)(F)F)CCC(F)(F)C(F)(F)CC[Si](*)(C)CCC(F)(F)F (repeat unit)
206.00 ± 1.4 °C | *c1cccc(Oc2cccc(N3C(=O)c4ccc(Oc5ccc6c(c5)C(=O)N(*)C6=O)cc4C3=O)c2)c1 (repeat unit)
270.00 °C | *c1cccc(-c2cc(C(=O)Nc3ccc(OC(=O)c4cc(OCCCCCCCCCCCC)c(OCCCCCCCCCCCC)c(OCCCCCCCCCCCC)c4)cc3)cc(-c3cccc(N4C(=O)CC(C5C=C(C)C6C(=O)N(*)C(=O)C6C5)C4=O)c3)c2)c1 (repeat unit)
234.1 °C | *c1ccc(Sc2ccc(Sc3ccc(Sc4ccc(-n5c(=O)c6cc7c(=O)n(*)c(=O)c7cc6c5=O)cc4)cc3)cc2)cc1 (repeat unit)
290.00 °C | *C(=O)c1ccc2c(c1)C(=O)N(c1cccc(Nc3nc(Nc4cccc(N5C(=O)c6ccc(*)cc6C5=O)c4)nc(N(c4ccccc4)c4ccccc4)n3)c1)C2=O (repeat unit)

More lines, now with the values behind:

SMILES | glass transition temperature
*C(=O)Nc1ccc(C2(c3ccc(NC(=O)c4ccc5c(c4)C(=O)N(c4cccc(N6C(=O)c7ccc(*)cc7C6=O)c4)C5=O)cc3)c3ccccc3-c3ccccc32)cc1 (repeat unit) | 209.00 °C
*c1cccc(-c2nc3cc(-c4ccc5[nH]c(*)nc5c4)ccc3[nH]2)c1 (repeat unit) | 410.00 °C
*c1ccc(C(=O)OCCCCCCOc2ccc(/C=C3\CCC/C(=C\c4ccc(OCCCCCCOC(=O)c5ccc(-c6nnc(*)o6)cc5)cc4)C3=O)cc2)cc1 (repeat unit) | 71.00 °C
*CC(*)(C)C(=O)OCCCCCCCCCCCCCCCCCC (repeat unit) | -100.00 °C
*CCOP(=O)(/N=N/c1ccc(COC(=O)c2cc(C(=O)OCc3ccc(/N=N/P(=O)(O*)OC)cc3)cc(C(C)(C)C)c2)cc1)OC (repeat unit) | 105.00 °C
*CC(*)(C)C(=O)Oc1ccc(C(=O)Oc2ccc(C)cc2)cc1 (repeat unit) | 98.00 °C
*Oc1ccc(C(c2ccccc2)(c2ccccc2)c2ccc(OC(=O)OC3C(C)(C)C(OC(*)=O)C3(C)C)cc2)cc1 (repeat unit) | 161.00 °C
*CC(*)c1ccc(CCCCCCCCCCCCCCCCCC)cc1 (repeat unit) | 32.00 °C
*CC(=O)Nc1ccc(NC(=O)COc2ccc3ccccc3c2Sc2c(O*)ccc3ccccc23)cc1 (repeat unit) | 268.00 °C
*C(=O)Nc1ccc(C(c2ccc(NC(=O)c3ccc4c(c3)C(=O)N(c3ccc(Oc5cccc6c(Oc7ccc(N8C(=O)c9ccc(*)cc9C8=O)cc7)cccc56)cc3)C4=O)cc2)(C(F)(F)F)C(F)(F)F)cc1 (repeat unit) | 283.00 °C
*CCCNC(=O)c1ccc(C(=O)NCCCO*)cc1 (repeat unit) | 72.00 °C
*CC(*)(C)C(=O)OC(C)C(C)(C)C (repeat unit) | 108.00 °C
*CCCCCCCCCCCCNC(=O)CCP(C)(=O)CCC(=O)N* (repeat unit) | 44.00 °C
*c1ccc2c(c1)C(=O)N(c1cccc(C(c3cccc(N4C(=O)c5ccc(C(*)(C(F)(F)F)C(F)(F)F)cc5C4=O)c3)(C(F)(F)F)C(F)(F)F)c1)C2=O (repeat unit) | 263.00 °C
*C(=O)c1ccc2c(c1)C(=O)N(c1ccc(Oc3ccc(C(=O)c4ccc(Oc5ccc(C(=O)c6ccc(Oc7ccc(N8C(=O)c9ccc(*)cc9C8=O)cc7)cc6)cc5)cc4)cc3)cc1)C2=O (repeat unit) | 215.00 °C
*OC(CC)CC(*)=O (repeat unit) | -15.40 °C
*c1ccc(Oc2ccc(C(=O)c3ccc(Oc4ccc(C(=O)c5ccc(Oc6ccc(-c7cc(*)n(-c8ccccc8)n7)cc6)cc5)cc4)cc3)cc2)cc1 (repeat unit) | 190.00 °C
*CC(*)c1ccc(C)cc1 (repeat unit) [Poly(p-methyl styrene) ] | 101 ± 1.6 °C
*Oc1ccc(C2(c3ccc(OC(*)=O)cc3C)CC3CC2C2C4CCC(C4)C32)cc1C (repeat unit) | 232.00 °C
*Oc1ccc(/C=C2\CC/C(=C\c3ccc(OC(=O)c4ccc(/N=C/c5ccc(/C=N/c6ccc(C(*)=O)cc6)cc5)cc4)cc3)C2=O)cc1 (repeat unit) | 205.00 °C

SMILES | glass transition temperature
*CC#CCOC(=O)NCCCCCCNC(=O)O* (repeat unit) | -45.00 °C
*CC(*)c1cccc2c1OCO2 (repeat unit) | 119.00 °C
*Nc1cc(NC(=O)c2cccc(C(*)=O)c2)cc(-c2nnc(-c3ccccn3)o2)c1 (repeat unit) | 155.00 °C
*CC(*)(C)C(=O)OCCCCCCCCCCCOc1ccc2cc(C(=O)Oc3ccccc3)ccc2c1 (repeat unit) | 10.00 °C
*Sc1ccc(Nc2ccc(*)cc2)cc1 (repeat unit) | 145.00 °C
*CC(*)c1ccc(COc2ccc(-c3ccc(-c4ccc(C)cc4)c4nsnc34)cc2)cc1 (repeat unit) | 117.00 °C
*c1ccc(C)c(N2C(=O)c3ccc(S(=O)(=O)c4ccc5c(c4)C(=O)N(*)C5=O)cc3C2=O)c1 (repeat unit) | 348.00 °C
*Nc1ccc(NC(=O)c2ccc(NC(=O)CCCCCCCCCCC(=O)Nc3ccc(C(*)=O)cc3)cc2)cc1C(=O)OCCCCCCCCCCCCCCCCCC (repeat unit) | 196.50 °C
*CC(*)(C)C(=O)OCCOc1ccc(/N=N/c2ccc([N+](=O)[O-])cc2)cc1 (repeat unit) | 112.00 °C
*c1ccc2c(c1)C(=O)N(c1c(C)c(C)c(N3C(=O)c4ccc(C(*)(C(F)(F)F)C(F)(F)F)cc4C3=O)c(C)c1C)C2=O (repeat unit) | 420.00 °C
*c1ccc(Oc2ccc(-c3ccc(Oc4ccc(N5C(=O)c6ccc(Oc7ccc8c(c7)C(=O)N(*)C8=O)cc6C5=O)cc4)cc3)cc2)cc1 (repeat unit) | 245.00 °C
*Oc1ccc(/C(=C/c2cc(OC)c(/C=C(/c3ccc(*)cc3)c3ccc(F)cc3)cc2OC)c2ccc(F)cc2)cc1 (repeat unit) | 187.00 °C
*c1ccc(-c2cc(-c3ccc(OCCCCCC)cc3)cc(-c3ccc(-c4ccc5c(c4)C(CCCCCC)(CCCCCC)c4cc(*)ccc4-5)cc3)c2-c2ccc(OCCCCCC)cc2)cc1 (repeat unit) | 118.00 °C
*Oc1ccc(C(C)(C)c2ccc(Oc3ccc(C(=O)c4c(C)ccc5c(C(=O)c6ccc(*)cc6)c(C)ccc45)cc3)cc2)cc1 (repeat unit) | 222.00 °C
*CCCCCOc1cccc(NC(=O)c2cccc(C(=O)Nc3cccc(O*)c3)c2)c1 (repeat unit) | 131.50 °C
*CCCCCNC(=S)N* (repeat unit) | 55.00 °C
*C(=O)c1ccc2c(c1)C(=O)N(c1ccc(-c3ccc(N4C(=O)c5ccc(*)cc5C4=O)cc3)cc1)C2=O (repeat unit) | 382.00 °C
*C(=O)Nc1ccc(Cc2ccc(NC(=O)c3ccc4c(c3)C(=O)N(c3ccc(Oc5ccc6ccc(Oc7ccc(N8C(=O)c9ccc(*)cc9C8=O)cc7)cc6c5)cc3)C4=O)cc2)cc1 (repeat unit) | 273.00 °C
*O[Si](*)(C)CC (repeat unit) | -133.00 °C
